This note sets out measurements from patent US20100222269A1, “IMPROVED DERIVATIVES OF AMYLIN” (priority 2007, published 2010).

Starred links: 1 amine or outer side, 2 acyl side, 3 side chain; linkers in the order of their positions; H or OH if unused. Positions of bridges follow the written chain, without caps; N, C: chain ends. Non-standard residues stand in square brackets, D forms with d. Residues, ends and D or L forms follow the SMILES beside them. *: point of attachment. C20 diacid = O=C(O)CCCCCCCCCCCCCCCCCCC(=O)*; γGlu = O=C(O)[C@H](CCC(=O)[*:2])N[*:1]; AEEA = NCCOCCOCC(=O)O

In the experiment the target is T1, Amylin 3(a) receptor (human calcitonin receptor (CTa) with RAMP-3) (Homo sapiens, UniProt O60896+P30988).
T1 construct: expressed in transfected cells; host or cells: BHK570 (baby hamster kidney) cells, stably transfected, with CRE-luciferase reporter
T1 sequence (O60896 24-148): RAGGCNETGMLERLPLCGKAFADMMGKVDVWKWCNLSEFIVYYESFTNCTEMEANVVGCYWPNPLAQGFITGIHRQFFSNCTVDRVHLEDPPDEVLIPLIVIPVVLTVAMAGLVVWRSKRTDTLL
T1 sequence (P30988 25-474): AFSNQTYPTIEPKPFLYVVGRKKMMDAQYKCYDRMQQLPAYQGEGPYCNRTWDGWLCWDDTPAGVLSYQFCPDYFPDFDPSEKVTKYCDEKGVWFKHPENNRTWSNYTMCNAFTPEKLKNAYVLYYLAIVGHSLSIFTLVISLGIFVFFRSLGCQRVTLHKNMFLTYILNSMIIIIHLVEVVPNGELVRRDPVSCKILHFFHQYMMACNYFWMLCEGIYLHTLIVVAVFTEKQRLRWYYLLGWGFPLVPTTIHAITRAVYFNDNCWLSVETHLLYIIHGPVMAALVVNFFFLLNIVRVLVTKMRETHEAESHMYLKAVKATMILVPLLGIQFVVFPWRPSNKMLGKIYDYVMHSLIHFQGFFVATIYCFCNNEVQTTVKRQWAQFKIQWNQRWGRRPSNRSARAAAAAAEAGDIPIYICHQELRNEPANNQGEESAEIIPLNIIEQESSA
In words: Amylin luciferase assay (CRE-luciferase reporter in BHK Amylin 3(a)//CRE-luc cells). The format is cell-based. The conditions noted are these: BHK570 cells with human calcitonin receptor (CTa), RAMP-3 and CRE-luciferase reporter; 4 hours incubation; read-out: Potency luciferase assay. Put shortly: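 BHK570 cells stably expressing human calcitonin receptor (CTa), RAMP-3 and a CRE-luciferase reporter, about 20.000 cells/well, were exposed to standard or sample for 4 h at 37° C in phenol-red-free DMEM with 10% FBS and 10 mM Hepes pH 7,4. Luminescence was read after 30 min with LucLite at room temperature.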
(A reporter such as luciferase makes a cellular process visible.)
`CC[C@H](C)[C@H](NC(=O)[C@@H]1CCCN1C(=O)CNC(=O)[C@H](Cc1ccccc1)NC(=O)[C@H](CC(N)=O)NC(=O)[C@H](CC(N)=O)NC(=O)[C@H](CO)NC(=O)[C@H](CO)NC(=O)[C@H](Cc1c[nH]cn1)NC(=O)[C@@H](NC(=O)[C@H](CC(C)C)NC(=O)[C@H](Cc1ccccc1)NC(=O)[C@H](CC(N)=O)NC(=O)[C@H](C)NC(=O)[C@H](CC(C)C)NC(=O)[C@H](CCCNC(=N)N)NC(=O)[C@H](CCC(N)=O)NC(=O)[C@@H](NC(=O)[C@H](C)NC(=O)[C@@H]1CSSC[C@H](NC(=O)[C@H](CCCNC(=N)N)NC(=O)[C@H](CCCNC(=N)N)NC(=O)CC[C@H](NC(=O)CCCCCCCCCCCCCCCCCCC(=O)O)C(=O)O)C(=O)N[C@@H](CC(N)=O)C(=O)N[C@@H]([C@@H](C)O)C(=O)N[C@@H](C)C(=O)N[C@@H]([C@@H](C)O)C(=O)N1)[C@@H](C)O)C(C)C)C(=O)N[C@@H](CC(C)C)C(=O)N1CCC[C@H]1C(=O)N1CCC[C@H]1C(=O)N[C@H](C(=O)N[C@@H](CC(N)=O)C(=O)N[C@H](C(=O)NCC(=O)N[C@@H](CO)C(=O)N[C@@H](CC(N)=O)C(=O)N[C@H](C(=O)N[C@@H](Cc1ccc(O)cc1)C(N)=O)[C@@H](C)O)C(C)C)[C@@H](C)O` [Example 47, N-alpha-[(S)-4-carboxy-4-(19-carboxynonadecanoylamino)butyryl]-Arg-[Arg1]-pramlintide (1-37)] ({C20 diacid-γGlu}-RRCNTATCATQRLANFLVHSSNNFGPILPPTNVGSNTY-NH2; disulfide 3-8; C-terminus assumed): the EC50 came to 100 pM. `CC[C@H](C)[C@H](NC(=O)[C@@H]1CCCN1C(=O)CNC(=O)[C@H](Cc1ccccc1)NC(=O)[C@H](CC(N)=O)NC(=O)[C@H](CC(N)=O)NC(=O)[C@H](CO)NC(=O)[C@H](CO)NC(=O)[C@H](Cc1c[nH]cn1)NC(=O)[C@@H](NC(=O)[C@H](CC(C)C)NC(=O)[C@H](Cc1ccccc1)NC(=O)[C@H](CC(N)=O)NC(=O)[C@H](C)NC(=O)[C@H](CC(C)C)NC(=O)[C@H](CCCNC(=N)N)NC(=O)[C@H](CCC(N)=O)NC(=O)[C@@H](NC(=O)[C@H](C)NC(=O)[C@@H]1CSSC[C@H](NC(=O)[C@H](CCCCN)NC(=O)[C@H](CCCCN)NC(=O)CC[C@H](NC(=O)CCCCCCCCCCCCCCCCCCC(=O)O)C(=O)O)C(=O)N[C@@H](CC(N)=O)C(=O)N[C@@H]([C@@H](C)O)C(=O)N[C@@H](C)C(=O)N[C@@H]([C@@H](C)O)C(=O)N1)[C@@H](C)O)C(C)C)C(=O)N[C@@H](CC(C)C)C(=O)N1CCC[C@H]1C(=O)N1CCC[C@H]1C(=O)N[C@H](C(=O)N[C@@H](CC(N)=O)C(=O)N[C@H](C(=O)NCC(=O)N[C@@H](CO)C(=O)N[C@@H](CC(N)=O)C(=O)N[C@H](C(=O)N[C@@H](Cc1ccc(O)cc1)C(N)=O)[C@@H](C)O)C(C)C)[C@@H](C)O` [Example 48, N-alpha-[(S)-4-carboxy-4-(19-carboxynonadecanoylamino)butyryl]-Lys-pramlintide (1-37)] ({C20 diacid-γGlu}-KKCNTATCATQRLANFLVHSSNNFGPILPPTNVGSNTY-NH2; disulfide 3-8): the EC50 stood at 100 pM.

For `CC[C@H](C)[C@H](NC(=O)[C@@H]1CCCN1C(=O)CNC(=O)[C@H](Cc1ccccc1)NC(=O)[C@H](CC(N)=O)NC(=O)[C@H](CC(N)=O)NC(=O)[C@H](CO)NC(=O)[C@H](CO)NC(=O)[C@H](Cc1c[nH]cn1)NC(=O)[C@@H](NC(=O)[C@H](CC(C)C)NC(=O)[C@H](Cc1ccccc1)NC(=O)[C@H](CC(N)=O)NC(=O)[C@H](C)NC(=O)[C@H](CC(C)C)NC(=O)[C@H](CCCNC(=N)N)NC(=O)[C@H](CCC(N)=O)NC(=O)[C@@H](NC(=O)[C@H](C)NC(=O)[C@@H]1CSSC[C@H](NC(=O)[C@H](CCCCN)NC(=O)[C@H](CCCNC(=N)N)NC(=O)CC[C@H](NC(=O)CCCCCCCCCCCCCCCCCCC(=O)O)C(=O)O)C(=O)N[C@@H](CC(N)=O)C(=O)N[C@@H]([C@@H](C)O)C(=O)N[C@@H](C)C(=O)N[C@@H]([C@@H](C)O)C(=O)N1)[C@@H](C)O)C(C)C)C(=O)N[C@@H](CC(C)C)C(=O)N1CCC[C@H]1C(=O)N1CCC[C@H]1C(=O)N[C@H](C(=O)N[C@@H](CC(N)=O)C(=O)N[C@H](C(=O)NCC(=O)N[C@@H](CO)C(=O)N[C@@H](CC(N)=O)C(=O)N[C@H](C(=O)N[C@@H](Cc1ccc(O)cc1)C(N)=O)[C@@H](C)O)C(C)C)[C@@H](C)O` [Example 49, N-alpha-[(S)-4-carboxy-4-(19-carboxynonadecanoylamino)butyryl]-Arg-pramlintide (1-37)] ({C20 diacid-γGlu}-RKCNTATCATQRLANFLVHSSNNFGPILPPTNVGSNTY-NH2; disulfide 3-8; C-terminus assumed), the EC50 turned out to be 200 pM.

As for `CC[C@H](C)[C@H](NC(=O)[C@@H]1CCCN1C(=O)CNC(=O)[C@H](Cc1ccccc1)NC(=O)[C@H](CC(N)=O)NC(=O)[C@H](CC(N)=O)NC(=O)[C@H](CO)NC(=O)[C@H](CO)NC(=O)[C@H](Cc1c[nH]cn1)NC(=O)[C@@H](NC(=O)[C@H](CC(C)C)NC(=O)[C@H](Cc1ccccc1)NC(=O)[C@H](CC(N)=O)NC(=O)[C@H](C)NC(=O)[C@H](CC(C)C)NC(=O)[C@H](CCCNC(=N)N)NC(=O)[C@H](CCC(N)=O)NC(=O)[C@@H](NC(=O)[C@H](C)NC(=O)[C@@H]1CSSC[C@H](NC(=O)[C@H](CCCCN)NC(=O)[C@H](CCCNC(=N)N)NC(=O)[C@H](CCCCN)NC(=O)[C@H](CCC(=O)O)NC(=O)CCCCCCCCCCCCCCCCCCC(=O)O)C(=O)N[C@@H](CC(N)=O)C(=O)N[C@@H]([C@@H](C)O)C(=O)N[C@@H](C)C(=O)N[C@@H]([C@@H](C)O)C(=O)N1)[C@@H](C)O)C(C)C)C(=O)N[C@@H](CC(C)C)C(=O)N1CCC[C@H]1C(=O)N1CCC[C@H]1C(=O)N[C@H](C(=O)N[C@@H](CC(N)=O)C(=O)N[C@H](C(=O)NCC(=O)N[C@@H](CO)C(=O)N[C@@H](CC(N)=O)C(=O)N[C@H](C(=O)N[C@@H](Cc1ccc(O)cc1)C(N)=O)[C@@H](C)O)C(C)C)[C@@H](C)O` [Example 50, N-alpha-(19-carboxynonadecanoyl)-Glu-Lys-Arg-pramlintide (1-37)] ({C20 diacid}-EKRKCNTATCATQRLANFLVHSSNNFGPILPPTNVGSNTY-NH2; disulfide 5-10), the EC50 was 80 pM. The same measure for `CC[C@H](C)[C@H](NC(=O)[C@@H]1CCCN1C(=O)CNC(=O)[C@H](Cc1ccccc1)NC(=O)[C@H](CC(N)=O)NC(=O)[C@H](CC(N)=O)NC(=O)[C@H](CO)NC(=O)[C@H](CO)NC(=O)[C@H](Cc1c[nH]cn1)NC(=O)[C@@H](NC(=O)[C@H](CC(C)C)NC(=O)[C@H](Cc1ccccc1)NC(=O)[C@H](CC(N)=O)NC(=O)[C@H](C)NC(=O)[C@H](CC(C)C)NC(=O)[C@H](CCCNC(=N)N)NC(=O)[C@H](CCC(N)=O)NC(=O)[C@@H](NC(=O)[C@H](C)NC(=O)[C@@H]1CSSC[C@H](NC(=O)[C@H](CCCNC(=N)N)NC(=O)[C@H](CCCCN)NC(=O)[C@H](CCC(=O)O)NC(=O)CCCCCCCCCCCCCCCCCCC(=O)O)C(=O)N[C@@H](CC(N)=O)C(=O)N[C@@H]([C@@H](C)O)C(=O)N[C@@H](C)C(=O)N[C@@H]([C@@H](C)O)C(=O)N1)[C@@H](C)O)C(C)C)C(=O)N[C@@H](CC(C)C)C(=O)N1CCC[C@H]1C(=O)N1CCC[C@H]1C(=O)N[C@H](C(=O)N[C@@H](CC(N)=O)C(=O)N[C@H](C(=O)NCC(=O)N[C@@H](CO)C(=O)N[C@@H](CC(N)=O)C(=O)N[C@H](C(=O)N[C@@H](Cc1ccc(O)cc1)C(N)=O)[C@@H](C)O)C(C)C)[C@@H](C)O` [Example 51, N-alpha-(19-carboxynonadecanoyl)-Glu-Lys-[Arg1]-pramlintide (1-37)] ({C20 diacid}-EKRCNTATCATQRLANFLVHSSNNFGPILPPTNVGSNTY-NH2; disulfide 4-9; C-terminus assumed): 70 pM; for “{C20 diacid}-EER[AEEA]ECNTATCATQRLANFLVHSSNNFGPILPPTNVGSNTY-NH2 (disulfide 6-11; C-terminus assumed) [Example 44, N-alpha-(2-{2-[2-((S)-2-{(S)-4-carboxy-2-[(S)-4-carboxy-2-(19-carboxynonadecanoylamino)butyrylamino]butyrylamino}-5-guanidinopentanoylamino)ethoxy]ethoxy}acetyl)-[Glu1]-pramlintide (1-37)]”: 400 pM.
